Type in all cases: in vivo
Experiment [1] deals with mosquito larvae. Put plainly: Adult mosquito emergence after high volume washing of coated containers (FIG. 24). The settings on record: embedded in polycrylic and polyurethane coatings; washed with tap water 5×, 20×, 50× container volume, refilled with fresh water. Here is the method: Referring to FIG. 24, two of the coating tested previously (refer to FIG. 23) were also tested for durability under high volume washing to see if they could stand under heavy rains. The coatings applied to plastic containers were subject to continuous washing with tap water for total volumes equivalent to 5×, 20×, and 50× the container volumes. After wards the containers were refilled with fresh water and mosquito larvae were added to the water. Adult emergence from the larvae was only observed in containers with coatings that contained no embedded larvicide. […] Coatings prevent larvicide washing off, with up to 50 times the volume of water as contained in the ovitrap. Most larvicides are applied to water and disappear when containers are emptied and re filled either naturally by rain action or by other means. The coating constantly treats new water put in containers with enough larvicide to preserve the mosquito-killing action. Both polycrylic and polyurethane protect the action of pyriproxyfen larvicide when containers coated with these materials are subjected to washing.

For experiment [2], the system named is mosquito larvae. The experiment can be described thus: Adult mosquito emergence, larvicide embedded in different coatings at different rates (FIG. 23). The text has this: Referring to FIG. 23, three different coating were used to embed the larvicide pyriproxyfen at 3 different rates. Coatings were applied to plastic containers that were filled with water, before mosquito larvae were transferred to these containers.
Several different formulae (polycrylic, Polyurethane and Latex paint) have been tested as coatings for the larvicide. All coatings performed well in preventing adult emergence from larvae added to water-holding containers coated internally with the coating-embedded larvicide even with 0.0001% of the active ingredient in the coating. Water treated with 0.01% rate is considered potable by the World Health Organization (WHO).

The subject of experiment [3] is mosquito larvae. Put plainly: Mosquito larval mortality with coating-embedded larvicide, 0-week and 20-week aging (FIGS. 17-18). The text has this:
FIG. 17 is a graph of mosquito larval mortality after 0-week aging with the average live mosquitoes on the vertical axis versus exposure time on the horizontal axis.
FIG. 18 is a graph of mosquito larval mortality after 20-week aging with the average live mosquitoes on the vertical axis versus exposure time on the horizontal axis.
FIG. 17 is a graph of mosquito larval mortality over 0-week aging with amount of mosquitoes on the vertical axis versus exposure time on the horizontal axis.
FIG. 18 is a graph of mosquito larval mortality over 20-week aging on the vertical axis versus exposure time on the horizontal axis.
By embedding the larvicide pyriproxyfen in a coating, the mosquito killing action is protected from degradation for more than 20 weeks.

This note sets out measurements from patent US9775335B2, “Durable coating-embedded pesticides with peel and stick mosquito treatment of containers” (University of Florida Research Foundation, Inc., priority 2013, dated 2017).

Structures are written as SMILES.

As to `CC(COc1ccc(Oc2ccccc2)cc1)Oc1ccccn1` (centres unmarked) [pyriproxyfen, Pyriproxyfen], in the experiment on mosquito larvae [1], the “adult mosquito emergence after washing” value is given as “prevented the emergence of adults”. The adult mosquito emergence result in the experiment on mosquito larvae [2] (embedded in three different coatings at 3 rates, applied to plastic containers filled with water) is given as “no emergence of mosquitoes even at low pyriproxyfen content”; in the experiment on mosquito larvae [2] (water standard (no coating), 3 rates), “mosquito emergence was only inhibited at the high pyriproxyfen level”. Moreover, the “time for which the mosquito killing action is protected from degradation” value in the experiment with mosquito larvae [3] (larvicide embedded in a coating) was “more than 20 weeks”. In addition, the “mosquito larval mortality / prevention of mosquito emergence” value in the experiment on mosquito larvae [3] (water in contact with coating-embedded larvicide or larvicide applied directly to container, new material or aged 20 weeks) was “mosquito larvae start to die as they reach the pupal stage”.
